Assay results taken from US8907103B2, “Glucagon antagonists” (Metabasis Therapeutics, Inc., priority 2008, dated 2014).

What was measured:
[1] = molecular target: T1, human glucagon receptor (Homo sapiens, UniProt P47871); experiment: Human glucagon receptor affinity ([125I]glucagon displacement, membrane preparation); type: binding; conditions: human glucagon receptor binding assay; stereo column says racemic or R-isomer; read-out: Hu IC50
T1 construct: host or cells: human liver samples or a recombinant cell line (alternatives)
Protocol: Compounds provided herein are dissolved in a suitable solvent (e.g., dimethlysulfoxide) at a concentration of 10 mM and then diluted in buffer (e.g., 50 mM Hepes, pH 7.4, 5 mM MgCl2, 1 mM CaCl2, and 0.2% BSA) to concentrations ranging from 1 nM to 100 μM. Compounds (20 μL/well) and [^125I]glucagon at the final concentration of 0.125 nM (20 μl/well) (Perkin Elmer) are added to and mixed in wells of a 96-well plate (Costar, Corning) containing 120 μL of buffer. Next, an appropriate aliquot of a membrane preparation containing the human glucagon receptor (isolated from human liver samples or obtained from a recombinant cell line) is added to the wells. The binding mixtures are incubated for 2 hrs at room temperature. In the meantime, a MultiScreen 96-well filter plate (Millipore) is treated with 200 μL of the buffer, which is vacuumed through the filter just before the binding mixtures are transferred to the plate. At the end of incubation, binding mixtures are transferred to the wells of the MultiScreen 96-well filter plate and filtered through by applying vacuum. The plate is washed once with 200 μL per well of the buffer, and the filters are dried and counted using a gamma counter.

[2] = test system: human hepatocytes; experiment: Functional antagonism of glucagon-stimulated glucose production in hepatocytes; type: cell-based; conditions: human hepatocyte assay, 1 nM glucagon; read-out: Hu Hepatocyte EC50
Protocol: Primary human, monkey, dog, rat, or mouse hepatocytes are seeded onto collagen-coated 24-well plates in Williams E medium (supplemented with 10% fetal bovine serum) and incubated at 37° C. overnight in M199 medium (supplemented with 15 mM glucose and 10 nM human insulin). The following day cells are washed twice with a glucose-free Kreb-bicarbonate buffer, pH 7.4, containing 0.1% BSA. Cells are then incubated at 37° C. with the aforementioned buffer containing 1 nM glucagon and varying concentrations of a glucagon antagonist (0-100 microM). Control wells without glucagon or antagonist are also included. After 1 hour, an aliquot of the medium is removed and analyzed for glucose content by means of the glucose oxidase method. The background glucose levels observed in the control wells are subtracted from the glucagon and antagonist containing wells. A graph of % glucose concentration vs drug concentration is plotted and an EC50 value for inhibition of glucose production generated using Sigmaplot software (SAS, Cary, N.C.). Alternatively, intracellular cAMP levels are measured using standard kits and EC50 values determined by plotting these levels against drug concentration. Antagonists of the glucagon receptor inhibit glucagon-induced cAMP production.

[3] = test system: db/db mouse; experiment: Glucose lowering in db/db mice; type: in vivo; conditions: oral gavage, freely-feeding db/db mice, 100% = normalization to lean db/+, read-out: % Glu lowering in db/db mouse @ 30 mg/kg
Protocol: To assess the effects of compounds provided herein on blood glucose levels in the db/db mouse, an animal model of type 2 diabetes, compounds are dissolved in polyethylene glycol-400 and administered by oral gavage to db/db mice in the freely-feeding state at doses of 30 and/or 100 mg/kg. Blood glucose levels are assessed in blood samples obtained by tail bleed at baseline (prior to drug administration) and at regular time intervals over 24 hrs using a portable glucometer such as the OneTouch or HemoCue meters. The magnitude of blood glucose lowering elicited by the compounds provided herein is determined by comparison to those in db/db mice administered only the vehicle. The percentage glucose lowering is calculated by factoring in the blood glucose levels of vehicle-treated lean db/+ (heterozygote) mice, with 100% representing the normalization of blood glucose levels from the hyperglycemic state (vehicle-treated db/db mice) to the normoglycemic state (vehicle-treated db/+ mice).

[4] = Oral bioavailability in the rat; type: in vivo

T1 sequence (P47871 26-477): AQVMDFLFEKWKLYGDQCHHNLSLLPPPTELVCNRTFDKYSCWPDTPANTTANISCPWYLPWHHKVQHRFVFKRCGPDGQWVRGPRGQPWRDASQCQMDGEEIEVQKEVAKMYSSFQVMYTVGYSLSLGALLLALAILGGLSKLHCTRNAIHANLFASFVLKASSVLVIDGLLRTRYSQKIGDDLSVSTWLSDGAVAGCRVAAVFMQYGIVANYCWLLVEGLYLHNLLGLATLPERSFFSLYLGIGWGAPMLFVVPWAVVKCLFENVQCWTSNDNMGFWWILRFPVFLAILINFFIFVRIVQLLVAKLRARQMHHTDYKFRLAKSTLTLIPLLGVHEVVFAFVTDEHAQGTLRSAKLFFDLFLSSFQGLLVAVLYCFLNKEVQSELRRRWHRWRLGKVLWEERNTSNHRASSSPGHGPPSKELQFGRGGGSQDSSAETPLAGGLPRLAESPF

| SMILES | IC50 [1] [nM] | OBAV in rat [4] [%] | EC50 [2] [nM] | inhibition in vivo at 30 mg/kg [3] [%] |
| --- | --- | --- | --- | --- |
| Cc1cc(C(F)(F)F)ccc1-c1ccc(NC(=O)C(Cc2ccc(C(=O)NCCS(=O)(=O)O)cc2)c2ccc(C3=CCC(C)(C)CC3)cc2)cc1 (racemic) | 11 |  | 30 | 20 |
| CC(C)(C)c1ccc(-c2ccc(C(Cc3ccc(C(=O)NCCS(=O)(=O)O)cc3)C(=O)Nc3ccc(C4=CCCC4)cc3)cc2)cc1 (racemic) | 17 |  | 65 | 30 |
| CC1(C)CC=C(c2cccc(C(Cc3ccc(C(=O)NCCS(=O)(=O)O)cc3)C(=O)Nc3ccc(-c4ccc(Cl)cc4Cl)cc3)c2)CC1 (racemic) | 15 |  | 30 | 28 |
| Cc1cccc2oc(-c3ccc(NC(=O)C(Cc4ccc(C(=O)NCCS(=O)(=O)O)cc4)c4ccc(C=CC(C)(C)C)cc4)cc3)nc12 (racemic) | 13 |  | 62 | 39 |
| CC(C)(C)C1CCC(c2ccc(C(Cc3ccc(C(=O)NCCS(=O)(=O)O)cc3)C(=O)Nc3ccc(-c4ccc(Cl)cc4Cl)cc3)cc2)CC1 (racemic) [drawing 106] | 16 |  |  | 25 |
| Cc1cc(Cl)ccc1-c1ccc(NC(=O)C(Cc2ccc(C(=O)NCCS(=O)(=O)O)cc2)c2ccc(C3CCC(C(C)(C)C)CC3)cc2)cc1 (racemic) | 12 |  | 41 | 58 |
| Cc1cc(Cl)ccc1-c1ccc(NC(=O)C(Cc2ccc(C(=O)NCCS(=O)(=O)O)cc2)c2ccc(C3=CCC(C)(C)CC3)cc2)cc1 (racemic) | 17 | 48 | 49 | 42 |

Now those with a lower IC50 [1], led by results:

| IC50 [1] [nM] | OBAV in rat [4] [%] | SMILES | EC50 [2] [nM] | inhibition in vivo at 30 mg/kg [3] [%] |
| --- | --- | --- | --- | --- |
| 10 | 52 | Cc1cc(Cl)ccc1-c1ccc(NC(=O)[C@H](Cc2ccc(C(=O)NCCS(=O)(=O)O)cc2)c2cccc(C3CCC(C)(C)CC3)c2)cc1 | 12 | 45 |
| 8 | 69 | CC1(C)CC=C(c2ccc(NC(=O)[C@H](Cc3ccc(C(=O)NCCS(=O)(=O)O)cc3)c3ccc(-c4ccc(C(C)(C)C)cc4)cc3)cc2)CC1 | 36 | 29 |
| 6 | 62 | Cc1cc(-c2ccc(NC(=O)[C@H](Cc3ccc(C(=O)NCCS(=O)(=O)O)cc3)c3ccc(-c4ccc(C(C)(C)C)cc4)cc3)cc2)ccc1Cl | 31 | 33 |
| 10 |  | Cc1ccccc1-c1ccc(NC(=O)C(Cc2ccc(C(=O)NCCS(=O)(=O)O)cc2)c2ccc(-c3ccc(C(C)(C)C)cc3)cc2)cc1 (racemic) | 194 | 45 |
| 9 | 54 | Cc1cc(Cl)ccc1-c1ccc(NC(=O)[C@H](Cc2ccc(C(=O)NCCS(=O)(=O)O)cc2)c2ccc([C@H]3CC[C@@H](C(C)(C)C)CC3)cc2)cc1 | 3 | 53 |
| 5 | 73 | Cc1cc(C)c(-c2ccc(NC(=O)[C@H](Cc3ccc(C(=O)NCCS(=O)(=O)O)cc3)c3ccc(-c4ccc(C(C)(C)C)cc4)cc3)cc2)c(C)c1 | 4 | 57 |
| 9 | 38 | Cc1cc(Cl)ccc1-c1ccc(NC(=O)C(Cc2ccc(C(=O)NCCS(=O)(=O)O)cc2)c2cccc(C3=CCC(C)(C)CC3)c2)cc1 (racemic) | 26 | 56 |
